Values of other authors, collected in patent US7494668B2, “Fast water-dispersible domperidone tablets” (Laboratorio Medinfar-Produtos Farmaceuticos, S.A., priority 2004, dated 2009).

Molecule | solubility in water
O=c1[nH]c2ccccc2n1CCCN1CCC(n2c(=O)[nH]c3cc(Cl)ccc32)CC1 [Domperidone, 5-chloro-1-[1-[3-(2-oxo-2,3-dihydro-1H-benzimidazol-1-yl)propyl]piperidine-4-yl]-1,3-dihydro-2H-benzimidazol-2-one] | practically insoluble in water
maleate | soluble in water
